Paper PMC4904262 (ACS Medicinal Chemistry Letters, 2016)

Assays:
in vitro [1] = conditions: mouse, microsomes
in vitro [2] = conditions: rat, microsomes
in vitro [3] = conditions: human, microsomes
Caco-2 = conditions: human

SMILES | microsomal CLint at 1 µM (in vitro [1]) [µL/min/mg] | microsomal CLint (in vitro [2]) [µL/min/mg] | microsomal CLint at 1 µM (in vitro [3]) [µL/min/mg] | microsomal CLint at 1 µM (in vitro [2]) [µL/min/mg] | Caco-2 ER (Caco-2) | Caco-2 PappA-B (Caco-2) | microsomal CLint (in vitro [3]) [µL/min/mg]
CNC(=O)c1ccc2cncc(-c3ccc(-c4cnn(C)c4)cc3)c2n1 [Compound 4] | 172 | > 1000 | 40 | – | – | – | –
CNC(=O)c1ccc2cncc(-c3ccc4c(cnn4C)c3)c2n1 [Compound 5] | 444 | – | 116 | 699 | – | – | –
CNC(=O)c1ccc2cncc(-c3ccc4cnn(C)c4c3)c2n1 [Compound 6] | 333 | – | 32 | 178 | – | – | –
Cn1cc(-c2ccc(-c3cncc4ccc(C(N)=O)nc34)cc2)cn1 [Compound 9] | 155 | – | 34 | – | – | – | –
Cn1cc(-c2ccc(-c3cncc4ccc(C(=O)N5CCC5)nc34)cc2)cn1 [Compound 12] | 143 | – | 38 | 85 | – | – | –
Cn1cc(-c2ccc(-c3cncc4ccc(C(=O)N5CC(F)(F)C5)nc34)cc2)cn1 [Compound 14] | 160 | – | 111 | 317 | – | – | –
Cn1cc(-c2ccc(-c3cncc4ccc(C(=O)N5CCCC5)nc34)cc2)cn1 [Compound 15] | 321 | – | 38 | 55 | – | – | –
Cn1cc(-c2ccc(-c3cncc4ccc(C(=O)N5CCOCC5)nc34)cc2)cn1 [Compound 16] | 83 | – | 41 | 23 | – | – | –
Cn1cc(-c2ccc(-c3cncc4ccc(N5CCNC5=O)nc34)cc2)cn1 [Compound 20] | 246 | – | 64 | 323 | – | – | –
Cn1cc(-c2ccc(-c3cncc4ccc(-c5ccnn5C)nc34)cc2)cn1 [Compound 23] | 310 | – | 144 | 761 | – | – | –
Cn1cc(-c2ccc(-c3cncc4ccc(-c5ccn(C)n5)nc34)cc2)cn1 [Compound 24] | 299 | – | 45 | 212 | – | – | –
Cn1cc(-c2ccc(-c3cncc4ccc(-c5nccn5C)cc34)cc2)cn1 [Compound 33] | 570 | – | 398 | 307 | – | – | –
Cn1cc(-c2ccc(-c3cnc(N)c4ccc(C(=O)N5CCOCC5)nc34)cc2)cn1 [Compound 50] | – | – | – | – | 9 | 34.0 × 10^–6 cm/s | –
Cn1cc(-c2ccc(-c3cnc(N)c4ccc(C(=O)N5CCC5)nc34)cc2)cn1 [Compound 52] | 61 | – | 24 | 38 | 5.3 | 42.6 × 10^–6 cm/s | –
COC1(C)CN(C(=O)c2ccc3c(N)ncc(-c4ccc(-c5cnn(C)c5)cc4)c3n2)C1 [Compound 53] | 48 | 25 | – | – | 5.8 | 40.1 × 10^–6 cm/s | 25
Cn1cc(-c2ccc(-c3cnc(N)c4ccc(C(=O)N5CC(F)(F)C5)nc34)cc2)cn1 [Compound 54] | 107 | – | 25 | 19 | 1.8 | 23.9 × 10^–6 cm/s | –
Cn1cc(-c2ccc(-c3cnc(N)c4ccc(C(=O)N5CC(C)(F)C5)nc34)cc2)cn1 [Compound 55] | 125 | – | 20 | 24 | 3.4 | 27.6 × 10^–6 cm/s | –
Cn1cc(-c2ccc(-c3cnc(N)c4ccc(C(=O)N5CCCC5)nc34)cc2)cn1 [Compound 56] | 81 | – | 30 | 63 | 5.0 | 30 × 10^–6 cm/s | –
Cn1cc(-c2ccc(-c3cnc(N)c4ccc(C(=O)N5CCC5)cc34)cc2)cn1 [Compound 58] | 23 | – | – | 11 | 5.5 | 27.2 × 10^–6 cm/s | < 10
